System: sporozoites of P. falciparum
Experiment: Inhibition of penetration of sporozoites into human hepatocytes
Format: cell-based
Details: sera of immunized C57BL/6 mice; 1:5 solution of sample; human hepatoma cells
Description: Human hepatoma cells were seeded at a concentration of 10^5 cells/chamber in Lab.-Tek plastic chambers (Miles) and cultivated for 24-48 hours
Then, to each chamber 25 μl was charged of a suspension containing 5-10^4 sporozoites of P. falciparum and 25 μl of a 1:5 solution of the sample under test.
The sporozoites were obtained from salivary glands of Anopheles stephensi infected with P. falciparum.
Two and six days later, the number of infected hepatocytes was determined by immunofluorescence by using monoclonal anti-P. falciparum CS protein antibodies.

## (Asn--Ala--Asn--Pro)40 [(NANP)40]
  inhibition of the penetration of the sporozoites of P. falciparum into the hepatic cells: < 86%

Source: patent publication US5225530A, “Polypeptide useful for the preparation of antimalarial vaccines and of diagnostic kits for the detection of malarial affections” (priority 1986, dated 1993)
